# Source: US5624935A, “Heterocyclic compounds having anti-diabetic activity and their use” (Sankyo Company, Limited, priority 1994, dated 1997)
# What was measured:
# [1] = test system: blood glucose level; experiment: Hypoglycemic activity in hyperglycemic KK mice; type: in vivo, hyperglycemic male mice of the KK strain; conditions: Mus musculus, oral, 18 hours, vs solvent-only group, read-out: Hypoglycemic effect
# Description: The test animals used were hyperglycemic male mice of the KK strain, each having a body weight of at least 40 g. The compounds under test were mixed with a 1:1 by volume mixture of polyethylene glycol 400 and water. Each animal was orally administered a test compound in the amount shown in the following Table 6 and then allowed to feed freely for 18 hours. At the end of this time, blood was collected from the tail veins without anesthesia. The blood glucose level (BGL) was determined by means of a glucose analyzer (GL-101, manufactured by Mitsubishi Kasei Co. or a Glucoroder-F manufactured by Shino Test Co.).
# The hypoglycemic effect was calculated by the following equation: [formula] where: BGLs is the blood glucose level in the group administered a solvent only, but no active compound; and
# BGLt is the blood glucose level in the group administered a test compound.
# The results are shown in the following Table 6, in which each compound of the present invention is identified by the number of one of the following Examples in which its preparation is illustrated.
# [2] = target: T1, Bovine lens aldose reductase (Bos taurus, UniProt P16116); experiment: Inhibition of Aldose reductase; type: biochemical; conditions: for inhibition at 5 µg/mL: read-out: Inhibition at 5 μg/ml
# T1 construct: Bovine lens aldose reductase was separated and partially purified; from tissue; host or cells: bovine lens
# Description: Bovine lens aldose reductase was separated and partially purified by the method of S. Hyman and J. H. Kinoshita [J. Biol. Chem., 240, 877 (1965)] and K. Inagaki, I. Miwa and J. Okuda [Arch. Biochem. Biophys., 316, 337 (1982)], and its activity was determined photometrically by the method of Varma et al. [Biochem. Pharmac., 25, 2505 (1976)]. Inhibition of enzyme activity was measured for the compounds of the present invention at a concentration of 5 μg/ml, and the measured values were used to calculate the IC50 values.
# [3] = test system: male F344 rats; experiment: Toxicity, 2 weeks oral in rats; type: in vivo; conditions: for mortality rate: oral, 50 mg/kg per day, 2 weeks, male F344 rats; for abnormalities which could be attributed to the test compounds: rat, in vivo, po, 50 mg/kg/day
# Description: The toxicity of the compounds of the present invention was tested on male F344 rats, divided into groups of 5. The test compound was adminstered orally to each test animal at a dose of 50 mg/kg of body weight per day for 2 weeks. The test compounds used were those of Examples 7 and 17 .
SMILES,inhibition at 5 µg/mL [2] [%],IC50 [2] [µM],inhibition in vivo at 10 mg/kg [1] [%],inhibition in vivo at 1 mg/kg [1] [%],mortality rate [3],abnormalities which could be attributed to the test compounds [3]
"O=C1NC(=O)C(Cc2ccc(OCCN3CCc4ccccc43)cc2)S1 (stereo not drawn) [Example 3, 5-{4-[2-(Indolin-1-yl)ethoxyl]benzyl}thiazolidine-2,4-dione]",,10,27,,,
"O=C1NC(=O)C(Cc2ccc(OCCc3c[nH]c4ccccc34)cc2)S1 (stereo not drawn) [Example 4, 5-{4-[2-(Indol-3-yl)ethoxy]benzyl}thiazolidine-2.4dione]",,6.28,,,,
"O=C1NC(=O)C(Cc2ccc(OCCn3cc(C(c4ccccc4)(c4ccccc4)c4ccccc4)c4ccccc43)cc2)S1 (stereo not drawn) [Example 5, 5-{4-[2-(3-Triphenylmethylindol-1-yl)ethoxyl]-benzyl}thiazolidine-2,4-dione]",,,16.2,,,
"O=C1NC(=O)C(Cc2ccc(OCCn3ccc4ccccc43)cc2)S1 (stereo not drawn) [Example 6, 5-{4-[2-(Indol-1-yl)ethoxy]benzyl}thiazolidine-1-dione]",47,,20.9,,,
"Cn1c(COc2ccc(CC3SC(=O)NC3=O)cc2)nc2cccnc21 (stereo not drawn) [Example 7, 5-{4-(3-Methyl-3H-imidazo[4,5-b]pyridin-2-methoxyl)-benzyl}thiazolidine-2,4-dione]",,2.71,,24.7,zero,no abnormalities
"O=C1NC(=O)C(Cc2ccc(OCc3cn4ccccc4n3)cc2)S1 (stereo not drawn) [Example 9, 5-{4-(Imidazo[1,2-a]pyridin-2-ylmethoxy)benzyl}-thiazolidine2,4-dione]",53.3,,27.6,,,
"Cn1c(COc2ccc(CC3SC(=O)NC3=O)cc2)cc2ccccc21 (stereo not drawn) [Example 10, 5-[4-(1-Methylindol-2-ylmethoxy)benzyl]thiazolidine-2,4-dione]",,,,11.6,,
"CCn1c(COc2ccc(CC3SC(=O)NC3=O)cc2)nc2cccnc21 (stereo not drawn) [Example 12, 5-{4-(3-Ethyl-3H-imidazo[4,5-b]pyridin-2-ylmethoxy)-benzyl}thiazolidine-2,4-dione]",,4.45,,,,
"Cn1c(COc2ccc(CC3SC(=O)NC3=O)cc2)nc2ccc(Cl)nc21 (stereo not drawn) [Example 17, 5-{4-(5-Chloro-3-methyl-3H-imidazo[4,5-b]pyridin-2-ylmethoxy)benzyl}thiazolidine-2,4-dione]",,4.47,,37.1,zero,no abnormalities
"Cn1c(COc2ccc(CC3SC(=O)NC3=O)cc2)nc2cc(C(F)(F)F)cnc21 (stereo not drawn) [Example 18, 5-{4-(3-Methyl-6-trifluoromethyl-3H-imidazo[4,5-b]pyridin-2-ylmethoxy)benzyl}thiazolidine-2,4-dione]",76.3,2.02,,,,
"O=C1NC(=O)C(Cc2ccc(OCc3nc4cccnc4n3Cc3ccc(Cl)cc3)cc2)S1 (stereo not drawn) [Example 20, 5-(4-{3-(4-Chlorobenzyl)-3H-imidazo[4,5-b]pyridin-2-ylmethoxyl}benzyl)thiazolidine-2,4-dione]",61.6,3.76,,24.5,,
"Cn1c(COc2ccc(CC3SC(=O)NC3=O)cc2)nc2cc(Cl)cnc21 (stereo not drawn) [Example 23, 5-{4-(6-Chloro-3-methyl-3H-imidazo[4,5-b]pyridin-2-ylmethoxy)benzyl}thiazolidine-2,4-dione]",94.9,3.23,,21.7,,
Cn1c(COc2ccc(CC3SC(=O)NC3=O)cc2)nc2cnccc21 (stereo not drawn) [Example 25],81.6,2.42,,,,

# Now from value to compound, other results behind:
inhibition at 5 µg/mL [2] [%],IC50 [2] [µM],SMILES,inhibition in vivo at 10 mg/kg [1] [%],inhibition in vivo at 1 mg/kg [1] [%],mortality rate [3],abnormalities which could be attributed to the test compounds [3]
54.5,,"O=C1NC(=O)C(Cc2ccc(OCC3Cc4ccccc4N3)cc2)S1 (stereo not drawn) [Example 1, 5-[4-(Indolin-2-ylmethoxy)benzyl]thiazolidine-2,4-dione]",13.2,,,
58.1,8.68,"CN1c2ccccc2CC1COc1ccc(CC2SC(=O)NC2=O)cc1 (stereo not drawn) [Example 2, 5-[4-(1-Methylidolin-2-ylmethoxy)benzyl]thiazolidine-2,4-dione]",,27.7,,
,7.06,Cn1c(COc2ccc(CC3SC(=O)NC3=O)cc2)nc2ncccc21 (stereo not drawn) [Example 13],,34,,
53.9,,"Cn1c(CCCOc2ccc(CC3SC(=O)NC3=O)cc2)nc2cccnc21 (stereo not drawn) [Example 14, 5-[4-{3-(3-Methyl-3H-imidazo[4,5-b]pyridin-2-yl)-propoxy}-benzyl]thiazolidine-2,4-dione]",,,,
,6.77,"O=C1NC(=O)C(Cc2ccc(OCc3nc4ncccc4[nH]3)cc2)S1 (stereo not drawn) [Example 15, 5-{4-(1H-Imidazo[4,5-b]pyridin-2-ylmethoxy)benzyl}-thiazolidine-2,4-dione]",,13.8,,
59.1,9.67,"Cc1ccnc2c1nc(COc1ccc(CC3SC(=O)NC3=O)cc1)n2C (stereo not drawn) [Example 16, 5-{4-(3,7-Dimethyl-3H-imidazo[4,5-b]pyridin-2-ylmethoxy)benzyl}thiazolidine-2,4-dione]",,,,
77.2,4.02,"Cn1c(COc2ccc(CC3SC(=O)NC3=O)cc2)nc2cc(Br)cnc21 (stereo not drawn) [Example 22, 5-{4-(6-Bromo-3-methyl-3H-imidazo[4,5-b]pyridin-2-ylmethoxy)benzyl}thiazolidine-2,4-dione]",,10.2,,
91.8,1.97,O=C1NC(=O)C(Cc2ccc(OCc3nc4cccnc4n3-c3ccccc3)cc2)S1 (stereo not drawn) [Example 27],,,,
